As usually defined, the Kd is the concentration at which binding is half-saturated.

Molecules are shown by their SMILES.

The nature of experiment [1]: Inhibition of C-terminal 6His-tagged Escherichia coli UTI89 FmlH (1 to 160 residues) expressed in Escherichia coli C600 expression system using tetramethylbenzidine as substrate incubated for 1 hr by […].
Experiment [2] is described as follows: Binding affinity to C-terminal 6His-tagged Escherichia coli UTI89 FmlH (1 to 160 residues) expressed in Escherichia coli C600 expression system assessed as dissociation constant by biolayer interferometry assay. On the technique in general: BLI is a label-free optical method that tracks binding on a fibre tip over time.

`O=C(O)C[C@H]1[C@@H](Oc2ccccc2-c2cccc(C(=O)O)c2)O[C@H](CO)[C@H](O)[C@@H]1O` came in with a dissociation constant Kd in experiment [1] of 0.64 µM.

As for `O=C(O)C[C@H]1[C@@H](Oc2ccccc2[N+](=O)[O-])O[C@H](CO)[C@H](O)[C@@H]1O`, the dissociation constant Kd in experiment [2] worked out at 10.6 µM.

The values are drawn from ChEMBL document CHEMBL5137057, “Small Carbohydrate Derivatives as Potent Antibiofilm Agents” (J Med Chem, 2022).
